The values below come from patent publication US11116771B2, “G protein-coupled receptor (GPCR) modulation by imipridones” (Oncoceutics, Inc., priority 2016, dated 2021).

Broadly, the NOAEL is the highest dose or exposure tested at which no adverse effect was seen. One may read the MIC90 as the lowest concentration that inhibits either 90% of growth or 90% of the strains tested, depending on the study. A word on the MIC99: it is the lowest concentration that inhibits either 99% of growth or 99% of the strains tested, depending on the study.

Series [1] has as its system human cancer cells. The series is described as follows: Viability of human cancer cells at 72 hours post-treatment. Type of series: cell-based. The settings on record: relative to the potency of ONC201; viability of human cancer cells at 72 hours post-treatment.
The test system of series [2] is normal cells. Put plainly: In vitro toxicity to normal cells. The note with it: FIG. 33. In kind it is cell-based.
Series [3] is described as follows: Mouse tolerability (non-GLP oral single dose / MTD study). In kind it is in vivo. The settings on record: in vivo; mouse; non-GLP oral single dose study / MTD study. As to the method: ONC212 25 mg/kg represents NOAEL in mouse and rat non-GLP oral single dose studies which is also the efficacious dose in mouse xenograft studies. […].
Dual targeting of DRD2/3 and GPR132/91 represents a novel strategy for anti-cancer efficacy without toxicity. […] […]. […] […].

Series [4] deals with DRD2 (short and long isoforms). The series is described as follows: β-arrestin recruitment GPCR reporter assay, DRD2. In kind it is cell-based. Background: Activated receptors often draw arrestin, which recruitment assays turn into a signal.
The target of series [5] is DRD3 (Homo sapiens, UniProt P35462). Put plainly: β-arrestin recruitment GPCR reporter assay, DRD3. In kind it is cell-based.
Series [6] has as its target T1, GPR132 (Homo sapiens, UniProt Q9UNW8).
T1 sequence (Q9UNW8 1-380): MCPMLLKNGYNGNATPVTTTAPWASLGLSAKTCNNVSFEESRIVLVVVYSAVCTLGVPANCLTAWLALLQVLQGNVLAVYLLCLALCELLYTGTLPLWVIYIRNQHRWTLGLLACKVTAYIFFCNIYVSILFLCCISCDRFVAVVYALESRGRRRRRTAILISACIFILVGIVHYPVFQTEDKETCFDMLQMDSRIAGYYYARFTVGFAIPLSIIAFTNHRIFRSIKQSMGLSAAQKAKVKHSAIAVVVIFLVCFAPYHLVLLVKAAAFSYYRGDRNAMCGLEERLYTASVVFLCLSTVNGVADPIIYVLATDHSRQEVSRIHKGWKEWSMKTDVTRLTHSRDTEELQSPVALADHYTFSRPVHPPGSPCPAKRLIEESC
The series is described as follows: β-arrestin recruitment GPCR reporter assay, GPR132. In kind it is cell-based.

For series [7], the target named is GPR91 (Homo sapiens, UniProt Q9BXA5). Put plainly: β-arrestin recruitment GPCR reporter assay, GPR91. In kind it is cell-based.
Series [8] concerns Staphylococcus aureus ATCC 29213. Put plainly: MIC by micro-broth dilution, S. aureus ATCC 29213. Type of series: cell-based. The settings on record: ATCC29213; for MIC90: read-out: MIC90; for MIC99: read-out: MIC99. (In general: Broth dilution looks for growth in wells or tubes with falling amounts of substance.)
For series [9], the system named is Staphylococcus aureus ATCC 33591. Put plainly: MIC by micro-broth dilution, S. aureus ATCC 33591. The settings on record: ATCC33591; for MIC90: read-out: MIC90; for MIC99: read-out: MIC99. In kind it is cell-based.
For series [10], the system named is Staphylococcus aureus ATCC 700699. The series is described as follows: MIC by micro-broth dilution, S. aureus ATCC 700699. Type of series: cell-based. The note with it: ATCC700699; for MIC90: read-out: MIC90; for MIC99: read-out: MIC99.
Series [11] deals with DRD5 (Homo sapiens, UniProt P21918). Put plainly: β-arrestin recruitment GPCR reporter assay, DRD5. Type of series: cell-based. The note with it: arrestin recruitment reporter assay.
In series [12] the target is CXCR7 (Homo sapiens, UniProt P25106). The series is described as follows: β-arrestin recruitment GPCR reporter assay, CXCR7. In kind it is cell-based.
Series [13] has as its system GPCRs. Put plainly: GPCR profiling by arrestin recruitment reporter assay (panel). In kind it is cell-based. The settings on record: 10 μM.
In series [14] the target is DRD2L (Homo sapiens, UniProt P14416). The series is described as follows: Gaddum/Schild analysis of arrestin recruitment to DRD2L. In kind it is cell-based. The note with it: arrestin recruitment / cAMP reporters (FIGS. 5B, 5C, 5F).
The conditions of series [15]: Jacob et al. 2014; Wagner et al. 2015; cited from earlier work.
[16] abbreviates: wild type Staphylococcus aureus (ATCC 29213), read-out: MIC.
The mark [17] stands for this setting: Staphylococcus aureus, ATCC 29213, 24 hours.
[18] abbreviates: Staphylococcus aureus, ATCC 29213, 24 hours, read-out: MIC95.
The mark [19] stands for this setting: Staphylococcus aureus, ATCC 29213, 24 hours, read-out: MIC, Visual.
The mark [20] stands for this setting: Staphylococcus aureus (ATCC 33591), methicillin resistant, read-out: MIC.
Setting [21] is: Staphylococcus aureus, ATCC 33591, 24 hours.
Setting [22] is: Staphylococcus aureus, ATCC 33591, 24 hours, read-out: MIC95.
The mark [23] stands for this setting: Staphylococcus aureus, ATCC 33591, 24 hours, read-out: MIC, Visual.
Where [24] appears, read: Staphylococcus aureus, ATCC 700699 (48 hours).
The mark [25] stands for this setting: Staphylococcus aureus, ATCC 700699 (48 hours), read-out: MIC95.
Setting [26] is: Staphylococcus aureus, ATCC 700699 (48 hours), read-out: MIC, Visual.

≈ marks a conversion by molar mass, not a printed value. Entries after “also recorded” stand apart in the source; their conditions may differ. Like-named read-outs stand apart in the source and are kept apart here. Bounds are passed on as bounds.

Sequence of DRD3 (P35462 whole entry): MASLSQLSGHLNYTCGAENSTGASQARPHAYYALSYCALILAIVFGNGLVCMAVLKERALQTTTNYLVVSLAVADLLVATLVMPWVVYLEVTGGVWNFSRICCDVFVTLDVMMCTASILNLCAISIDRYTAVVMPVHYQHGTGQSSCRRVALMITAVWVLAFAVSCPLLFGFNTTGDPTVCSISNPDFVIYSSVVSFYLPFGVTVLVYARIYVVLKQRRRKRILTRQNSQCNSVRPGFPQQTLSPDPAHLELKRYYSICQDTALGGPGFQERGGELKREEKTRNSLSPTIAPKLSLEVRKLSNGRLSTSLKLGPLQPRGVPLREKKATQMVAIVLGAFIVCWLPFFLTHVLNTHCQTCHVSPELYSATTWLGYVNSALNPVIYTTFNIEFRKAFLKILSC
Sequence of CXCR7 (P25106 whole entry): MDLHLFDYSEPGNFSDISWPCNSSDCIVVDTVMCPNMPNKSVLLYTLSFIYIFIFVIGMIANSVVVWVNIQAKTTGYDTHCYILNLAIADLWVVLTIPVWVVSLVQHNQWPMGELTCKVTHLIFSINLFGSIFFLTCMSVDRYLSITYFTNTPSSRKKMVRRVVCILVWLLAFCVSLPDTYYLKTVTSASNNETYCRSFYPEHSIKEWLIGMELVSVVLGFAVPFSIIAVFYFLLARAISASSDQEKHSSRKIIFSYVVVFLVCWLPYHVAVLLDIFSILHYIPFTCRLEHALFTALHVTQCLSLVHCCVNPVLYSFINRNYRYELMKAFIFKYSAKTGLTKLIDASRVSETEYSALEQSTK
Sequence of DRD2L (P14416 whole entry): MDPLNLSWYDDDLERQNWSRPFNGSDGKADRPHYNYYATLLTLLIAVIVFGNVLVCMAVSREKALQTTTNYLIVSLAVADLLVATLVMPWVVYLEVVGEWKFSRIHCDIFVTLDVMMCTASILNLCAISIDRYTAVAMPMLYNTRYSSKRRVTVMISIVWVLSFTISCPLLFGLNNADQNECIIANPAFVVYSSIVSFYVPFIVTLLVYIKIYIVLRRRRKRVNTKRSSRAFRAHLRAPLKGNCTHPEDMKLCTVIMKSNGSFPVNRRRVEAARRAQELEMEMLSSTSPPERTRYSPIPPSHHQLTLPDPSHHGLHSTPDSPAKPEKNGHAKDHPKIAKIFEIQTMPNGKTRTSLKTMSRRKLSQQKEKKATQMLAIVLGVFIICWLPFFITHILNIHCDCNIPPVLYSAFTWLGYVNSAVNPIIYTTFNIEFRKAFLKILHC
Sequence of DRD5 (P21918 whole entry): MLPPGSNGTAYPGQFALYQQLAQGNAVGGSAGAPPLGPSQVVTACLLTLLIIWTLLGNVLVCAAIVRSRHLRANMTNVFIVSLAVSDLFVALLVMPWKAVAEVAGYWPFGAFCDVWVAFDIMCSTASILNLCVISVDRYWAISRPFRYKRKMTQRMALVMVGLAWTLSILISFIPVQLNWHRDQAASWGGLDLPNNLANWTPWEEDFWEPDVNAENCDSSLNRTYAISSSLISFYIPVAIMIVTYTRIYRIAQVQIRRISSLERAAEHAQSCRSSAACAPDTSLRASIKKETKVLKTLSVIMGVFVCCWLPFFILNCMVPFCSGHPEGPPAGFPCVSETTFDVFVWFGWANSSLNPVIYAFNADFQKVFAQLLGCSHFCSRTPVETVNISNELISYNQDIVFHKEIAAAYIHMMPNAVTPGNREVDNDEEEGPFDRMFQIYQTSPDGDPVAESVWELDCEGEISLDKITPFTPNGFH
Sequence of GPR91 (Q9BXA5 whole entry): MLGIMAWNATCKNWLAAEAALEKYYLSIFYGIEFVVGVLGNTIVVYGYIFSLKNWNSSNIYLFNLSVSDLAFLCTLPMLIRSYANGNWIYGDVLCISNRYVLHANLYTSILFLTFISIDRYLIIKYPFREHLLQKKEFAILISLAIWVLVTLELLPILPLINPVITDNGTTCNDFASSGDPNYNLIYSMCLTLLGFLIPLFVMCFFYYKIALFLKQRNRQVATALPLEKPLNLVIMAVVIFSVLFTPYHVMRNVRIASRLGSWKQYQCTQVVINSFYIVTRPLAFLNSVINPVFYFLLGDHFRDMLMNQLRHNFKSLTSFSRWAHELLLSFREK

As for `O=C1C2=C(CCN(Cc3ccccc3)C2)N2CCN=C2N1Cc1ccc(F)c(F)c1` [ONC213], in [1], the “Relative Potency*” value was “A (A Indicates a potency increase of >2-fold of ONC201)”. Also, in series [2], the “in vitro toxicity to normal cells” value was “reduced compared to ONC212”. For the same compound, the NOAEL in series [3] was found to be 75 mg/kg. In [4], the “GPCR activity, DRD2” value was “DRD2/3 inhibitor; also recorded: more than ONC201 but less than ONC206”. Also, the “GPCR activity, DRD3” value in series [5] is given as “DRD2/3 inhibitor; also recorded: more than ONC201 but less than ONC206”. Also, in [6], the “GPCR activity, GPR132” value was “less than ONC212; also recorded: GPR132/91 agonist”. The “GPCR activity, GPR91” value in series [7] is “GPR132/91 agonist”. For the same compound, the MIC in [8] (setting [16]) amounted to 25 µg/mL (≈ 61.2 µM); in series [8] (setting [18]), 12.5 µg/mL (≈ 30.6 µM); in [8] (setting [19]) it was 25 µg/mL (≈ 61.2 µM); in [9] (setting [20]), 3.13 µg/mL (≈ 7.66 µM); in series [9] (setting [22]), 6.25 µg/mL (≈ 15.3 µM); in series [9] (setting [23]), 3.12 µg/mL (≈ 7.65 µM). In addition, the MIC in series [10] (setting [25]) and in [10] (setting [26]) was 12.5 µg/mL (≈ 30.6 µM) throughout. Further, the MIC90 in [8] (setting [17]) was 12.5 µg/mL (≈ 30.6 µM); in [9] (setting [21]), 3.13 µg/mL (≈ 7.66 µM); in series [10] (setting [24]) it was 6.25 µg/mL (≈ 15.3 µM). Moreover, the results for the MIC99 in [8] (setting [17]), in series [9] (setting [21]) and in series [10] (setting [24]) were 25 µg/mL (≈ 61.2 µM), 100 µg/mL (≈ 245 µM) and 12.5 µg/mL (≈ 30.6 µM), respectively.

With `O=C1C2=C(CCN(Cc3ccc(Cl)c(Cl)c3)C2)N2CCN=C2N1Cc1ccc(C(F)(F)F)cc1` [ONC234], the “Relative Potency*” value in series [1] is listed as “A (A Indicates a potency increase of >2-fold of ONC201)”. The “GPCR activity, DRD2” value in series [4] is on record as “antagonist activity”. Besides, the “GPCR activity, DRD5” value in series [11] was “antagonist activity”. Also, in series [12], the “GPCR activity, CXCR7” value is listed as “CXCR7 agonist activity”. In addition, the “GPCR profile / selectivity” value in series [13] is “broad spectrum and potent GPCR targeting small molecule”.

For `Cc1ccccc1CN1C2=NCCN2C(=O)C2=C1CCN(Cc1ccccc1)C2` [TIC-10], the “antagonism of DRD2L” value in [14] was “did not inhibit”. In addition, the “GPCR activity, CXCR7” value in series [12] is recorded as “CXCR7 agonist”. The MIC in series [8] (setting [16]), in [8] (setting [18]), in [8] (setting [19]), in series [9] (setting [20]), in series [9] (setting [22]) and in [9] (setting [23]) was > 100 µg/mL in each case. The MIC was > 100 µg/mL in [10] (MDR Staphylococcus aureus (ATCC 700699), read-out: MIC); > 100 µg/mL in [10] (setting [25]); > 100 µg/mL in series [10] (setting [26]). For the same compound, the MIC90 in [8] (setting [17]), in series [9] (setting [21]) and in series [10] (setting [24]) was > 100 µg/mL throughout. The MIC99 in [8] (setting [17]), in series [9] (setting [21]) and in [10] (setting [24]) was > 100 µg/mL throughout. The anti-cancer activity entry in series [15] is “lacks anti-cancer activity”.
